Patent publication US4361553A, “Therapeutic uses of dynorphin” (Regents of the University of California, priority 1981, dated 1982)

What was measured:
naive mice = assay: Tail-flick analgesia, morphine s.c. with or without dynorphin-(1-13) i.c.v., naive group (Example III); type: in vivo
Procedure: (§1) Male simonesen ICR mice (Gilroy, CA) weighing between 20-25 g were housed for at least one day prior to experimentation, and used within 5 days. Each mouse was used only once.
(§2) Analgesia was measured by the tail-flick method of D'Amour and Smith, J.Pharmac.Exp.Ther., 72, pp. 74-79 (1941), incorporated herein by reference, as modified by Tulunay and Takemori, J.Pharmac.Exp.Ther., 190, pp. 395-400 (1974), incorporated herein by reference. […] Nonresponding animals were removed from the heat stimulus when reaction times exceeded 10 sec. to avoid the tail damage.
(§3) Drugs were injected 30 min prior to testing, unless otherwise indicated.
(§4) The animals were separated into two groups.
(§5) The ED50 values, their 95% confidence limits and significance of the potency ratio between two ED50 values were determined by the method of Litchfield and Wilcoxon, J.Pharmacol.Exp.Ther, 96:99-113 (1949), incorporated herein by reference.

morphine tolerant mice [1] = assay: Tail-flick analgesia, β-endorphin i.c.v. with or without dynorphin-(1-13) i.c.v., morphine tolerant group (Example II); type: in vivo; details: for ED50 of β-endorphin: i.c.v.
Procedure: as §1, §2, §3, §4, §5

[2] = Addictiveness compared with morphine; type: in vivo
mouse vas deferens = details: cited from earlier work
morphine tolerant mice [3] = assay: Tail-flick analgesia, morphine s.c. with or without dynorphin-(1-13) i.c.v., morphine tolerant group (Example I); type: in vivo; details: dynorphin alone up to 50 μg/mouse
Procedure: as §1, §2, §3, §4, §5

morphine dependent mice = assay: Spontaneous withdrawal jumping after removal of morphine pellets (Example IV); type: in vivo; details: compared with saline
Procedure: Mice which jumped were separated and received 4 μl of saline i.c.v. or different doses of dynorphin, and tested 30 min and then 60 min after injection.

guinea pig ileum = details: cited from earlier work

CN1CC[C@]23c4c5ccc(O)c4O[C@H]2[C@@H](O)C=C[C@H]3[C@H]1C5.O=S(=O)(O)O [Morphine, morphine sulfate]
Analgesia (%) (naive mice; morphine 2 mg/kg s.c. alone): 10% | Analgesia (%) (naive mice; morphine 4 mg/kg s.c. alone): 30% | Analgesia (%) (naive mice; morphine 7.5 mg/kg s.c. alone): 80%

β-endorphin
ED50 of β-endorphin (morphine tolerant mice [1]; in the presence of 10 μg dynorphin-(1-13)): about 1.00 μg/mouse | ED50 of β-endorphin (morphine tolerant mice [1]; in the presence of 20 μg dynorphin-(1-13)): about 0.55 μg/mouse | Analgesia (%) (morphine tolerant mice [1]; β-endorphin 1 μg/mouse i.c.v. alone): 10% | Analgesia (%) (morphine tolerant mice [1]; β-endorphin 2 μg/mouse i.c.v. alone): 40% | Analgesia (%) (morphine tolerant mice [1]; β-endorphin 6 μg/mouse i.c.v. alone): 100%

CC[C@H](C)[C@H](NC(=O)[C@H](CCCNC(=N)N)NC(=O)[C@H](CCCNC(=N)N)NC(=O)[C@H](CC(C)C)NC(=O)[C@H](Cc1ccccc1)NC(=O)CNC(=O)CNC(=O)[C@@H](N)Cc1ccc(O)cc1)C(=O)N[C@@H](CCCNC(=N)N)C(=O)N1CCC[C@H]1C(=O)N[C@@H](CCCCN)C(=O)N[C@@H](CC(C)C)C(=O)N[C@@H](CCCCN)C(=O)O [dynorphin-(1-13)]
Times less addictive than morphine [2]: at least 100 times

dynorphin
Agonist properties in mouse vas deferens (mouse vas deferens): potent agonist properties | Own analgesic potency (morphine tolerant mice [3]): no analgesic potency | Effect on withdrawal (morphine dependent mice): significantly reduced, or repressed, withdrawal | Agonist properties in guinea pig ileum (guinea pig ileum): potent agonist properties
